# Measured values taken from BindingDB's records for doi:10.1002/cbic.200700524 (Universit&#224, 2008).
# Columns and labels:
# [1] = target: Thymidylate synthase (Escherichia coli (strain K12), UniProt P0A884); experiment: Inhibition Assay
# Description: (§1) All compounds were screened for inhibitory activity against Lactobacillus casei thymidylate synthase (LcTS) and Escherichia coli thymidylate synthase (EsTS). The inhibition experiments were conducted by measuring the effects of the inhibitor at different concentrations on the initial velocity of the enzyme in the presence of a limited amount of the folate substrate.
# [2] = target: T1, Thymidylate synthase (Lacticaseibacillus casei, UniProt P00469); experiment: Inhibition Assay
# T1 sequence (P00469 whole entry): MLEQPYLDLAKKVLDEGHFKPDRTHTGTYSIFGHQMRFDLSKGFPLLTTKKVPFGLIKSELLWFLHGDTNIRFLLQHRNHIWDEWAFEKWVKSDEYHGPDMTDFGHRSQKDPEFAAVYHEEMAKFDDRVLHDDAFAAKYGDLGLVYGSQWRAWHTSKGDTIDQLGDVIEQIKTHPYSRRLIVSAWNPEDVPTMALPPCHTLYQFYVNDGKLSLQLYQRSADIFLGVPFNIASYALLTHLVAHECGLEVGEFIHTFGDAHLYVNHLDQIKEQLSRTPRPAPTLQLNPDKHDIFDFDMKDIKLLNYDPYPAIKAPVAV
# Description: as §1
# Thymidylate synthase (Escherichia coli (strain K12), UniProt P0A884), sequence (P0A884 whole entry): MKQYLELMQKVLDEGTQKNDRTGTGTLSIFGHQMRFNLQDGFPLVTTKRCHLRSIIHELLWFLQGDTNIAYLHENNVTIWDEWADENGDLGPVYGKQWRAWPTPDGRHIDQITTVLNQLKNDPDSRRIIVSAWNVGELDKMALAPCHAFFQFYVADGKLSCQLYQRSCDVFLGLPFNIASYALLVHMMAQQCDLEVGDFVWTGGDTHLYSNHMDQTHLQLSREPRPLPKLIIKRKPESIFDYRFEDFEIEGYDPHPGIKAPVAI
SMILES,Ki [1] [µM],Ki [2] [µM]
"CN(C)c1cccc2c(S(=O)(=O)N[C@@H](Cc3cc(I)c(OS(=O)(=O)c4cccc5c(N(C)C)cccc45)c(I)c3)C(=O)O)cccc12 [Dansyl derivative, 2L]",8.2,4.4
"CN(C)c1cccc2c(S(=O)(=O)Oc3c(I)cc4c(c3I)CN(S(=O)(=O)c3cccc5c(N(C)C)cccc35)[C@H](C(=O)O)C4)cccc12 [Dansyl derivative, 2R]",7,3.6
"CN(C)c1cccc2c(S(=O)(=O)Oc3ccc(C[C@H](NS(=O)(=O)c4ccc([N+](=O)[O-])cc4)C(=O)O)cc3)cccc12 [Dansyl derivative, 3L]",> 1330,2.5
"CN(C)c1cccc2c(S(=O)(=O)Oc3ccc4c(c3)CN(S(=O)(=O)c3ccc([N+](=O)[O-])cc3)[C@H](C(=O)O)C4)cccc12 [Dansyl derivative, 3R]",23,5.9
"CN(C)c1cccc2c(S(=O)(=O)Oc3ccc(C[C@H](NC(=O)c4ccc([N+](=O)[O-])cc4)C(=O)O)cc3)cccc12 [Dansyl derivative, 4L]",> 1330,15
"CN(C)c1cccc2c(S(=O)(=O)Oc3ccc4c(c3)CN(C(=O)c3ccc([N+](=O)[O-])cc3)[C@H](C(=O)O)C4)cccc12 [Dansyl derivative, 4R]",36,15
"CN(C)c1cccc2c(S(=O)(=O)Oc3ccc(C[C@H](NS(=O)(=O)c4ccc(C(F)(F)F)cc4[N+](=O)[O-])C(=O)O)cc3)cccc12 [Dansyl derivative, 5L]",> 636,6.7
"CN(C)c1cccc2c(S(=O)(=O)Oc3ccc4c(c3)CN(S(=O)(=O)c3ccc(C(F)(F)F)cc3[N+](=O)[O-])[C@H](C(=O)O)C4)cccc12 [Dansyl derivative, 5R]",61,5.5
"CN(C)c1cccc2c(S(=O)(=O)Oc3ccc(C[C@H](NS(=O)(=O)CC45CCC(C(=O)C4)C5(C)C)C(=O)O)cc3)cccc12 (stereo not given in full) [Dansyl derivative, 6L]",> 1340,5.8
"CN(C)c1cccc2c(S(=O)(=O)Oc3ccc4c(c3)CN(S(=O)(=O)CC35CCC(C(=O)C3)C5(C)C)[C@H](C(=O)O)C4)cccc12 (stereo not given in full) [Dansyl derivative, 6R]",131,23
"CN(C)c1cccc2c(S(=O)(=O)Oc3ccc(C[C@H](NC(=O)c4ccc5ccccc5c4)C(=O)O)cc3)cccc12 [Dansyl derivative, 7L]",> 1470,17
"CN(C)c1cccc2c(S(=O)(=O)Oc3ccc4c(c3)CN(C(=O)c3ccc5ccccc5c3)[C@H](C(=O)O)C4)cccc12 [Dansyl derivative, 7R]",1530,9.4
"CN(C)c1cccc2c(S(=O)(=O)Oc3ccc(C[C@H](NS(=O)(=O)Cc4ccccc4)C(=O)O)cc3)cccc12 [Dansyl derivative, 8L]",> 1800,4.7
"CN(C)c1cccc2c(S(=O)(=O)Oc3ccc4c(c3)CN(S(=O)(=O)Cc3ccccc3)[C@H](C(=O)O)C4)cccc12 [Dansyl derivative, 8R]",194,10
"CN(C)c1cccc2c(S(=O)(=O)Oc3ccc(C[C@H](NS(=O)(=O)c4cc(Br)c(Br)s4)C(=O)O)cc3)cccc12 [Dansyl derivative, 9L]",> 1330,27
"CN(C)c1cccc2c(S(=O)(=O)Oc3ccc4c(c3)CN(S(=O)(=O)c3cc(Br)c(Br)s3)[C@H](C(=O)O)C4)cccc12 [Dansyl derivative, 9R]",60,4
"CN(C)c1cccc2c(S(=O)(=O)N[C@@H](Cc3ccc(OS(=O)(=O)c4cccc5c(N(C)C)cccc45)cc3)C(=O)O)cccc12 [Dansyl derivative, DDT, 1L]",1.8,
"CN(C)c1cccc2c(S(=O)(=O)Oc3ccc4c(c3)CN(S(=O)(=O)c3cccc5c(N(C)C)cccc35)[C@H](C(=O)O)C4)cccc12 [Dansyl derivative, rigid DDT, 1R]",13,0.8
